This note sets out measurements from ChEMBL document CHEMBL3351696, “Design of chemically stable, potent, and efficacious MDM2 inhibitors that exploit the retro-mannich ring-opening-cyclization reaction mechanism in spiro-oxindoles” (J Med Chem, 2014).

The structures appear in SMILES notation. Activity calls are given as the source filed them. The calls are words filed in the database; no cut-off is given here.

The subject of data set [1] is SJSA-1. In words: cells. As to conditions: Homo sapiens.
Data set [2] can be described thus: physchem. As to conditions: 1:1 CH3CN/H2O.
Data set [3] in a line: physchem. The settings on record: 1:1 CH3CN/H2O. This is another data set of the same source.
A short description of data set [4]: physchem. The settings on record: 1:1 CH3CN/H2O. This is another data set of the same source.
Data set [5] can be described thus: physchem. The settings on record: 1:1 CH3CN/H2O. The source holds these as a separate data set.
Data set [6] relates to SJSA-1. As to conditions: Homo sapiens, 200 mg/kg.
Data set [7] is described as follows: cells. As to conditions: Homo sapiens, HCT-116.
The nature of data set [8]: cells. As to conditions: Homo sapiens, HCT-116. The source holds these as a separate data set.
Data set [9] is described as follows: physchem. As to conditions: 1:1 MeOH/H2O solution.
A short description of data set [10]: physchem. The settings on record: 1:1 CH3CN/H2O solution.

For `CCC1(CC)N[C@@H](C(=O)N[C@H]2CC[C@H](O)CC2)[C@H](c2cccc(Cl)c2F)[C@]12C(=O)Nc1cc(Cl)ccc12`, the IC50 (commonly the concentration at which inhibition is half-maximal) in [1] came to 5.4 µM. In other words, the single-digit micromolar range.
For `CC(C)(C)C[C@@H]1N[C@@H](C(=O)NCCN2CCOCC2)[C@H](c2cccc(Cl)c2F)[C@]12C(=O)Nc1cc(Cl)ccc12`, in data set [2], the amount remaining (usually what is left of the initial amount, in per cent) at 0 h came to 98.1%. Also, the amount remaining at 24 h in data set [3] turned out to be 90.8%. The same molecule returned a fraction remaining at 72 h in [4] of 86.9%. The share remaining at 144 h in data set [5] amounted to 82.7%.
`O=C(NCC[C@H](O)CO)[C@@H]1NC2(CCCCC2)[C@@]2(C(=O)Nc3cc(Cl)ccc32)[C@H]1c1cccc(Cl)c1F` displayed a fraction remaining at 0 h in data set [2] of 100%. In data set [3], the share remaining at 24 h is 100%. Also, in [4], the fraction remaining at 72 h was 100%. For the same molecule, the IC50 in [1] is 0.2 µM. In addition, the share remaining at 144 h in data set [5] was 100%.
`O=C(N[C@H]1CC[C@H](O)CC1)[C@@H]1NC2(CCCCCC2)[C@@]2(C(=O)Nc3cc(Cl)ccc32)[C@H]1c1cccc(Cl)c1F`: 2.1 µM corresponded to half-maximal inhibition in data set [1] (IC50). In other words, the single-digit micromolar range.
Same read-out and setting: as for `CCC1(CC)N[C@@H](C(=O)N[C@H]2C[C@@](C)(O)C2)[C@H](c2cccc(Cl)c2F)[C@]12C(=O)Nc1cc(Cl)ccc12`, the figure is above 10 µM; as for `C[C@]1(O)C[C@@H](NC(=O)[C@@H]2NC3(CCC3)[C@]3(C(=O)Nc4cc(Cl)ccc43)[C@H]2c2cccc(Cl)c2F)C1`, 1.46 µM.
The same measure, in the same setting: as for `O=C(NCC[C@H](O)CO)[C@@H]1NC2(CCC2)[C@@]2(C(=O)Nc3cc(Cl)ccc32)[C@H]1c1cccc(Cl)c1F`, the figure is 2.08 µM.
Turning to `O=C(NCCN1CCOCC1)[C@@H]1NC2(CCC2)[C@@]2(C(=O)Nc3cc(Cl)ccc32)[C@H]1c1cccc(Cl)c1F`, the IC50 in [1] was determined as 2.3 µM.
Regarding `CC(C)(C)C[C@@H]1N[C@@H](C(=O)NCC[C@H](O)CO)[C@H](c2cccc(Cl)c2F)[C@]12C(=O)Nc1cc(Cl)ccc12`, the amount remaining at 0 h in data set [2] stood at 97.5%. Moreover, the fraction remaining at 24 h in [3] was found to be 95.8%. For the same molecule, the amount remaining at 72 h in [4] is 95.7%. In data set [5], the share remaining at 144 h turned out to be 91.4%.
In data set [1], `O=C(N[C@H]1CC[C@H](O)CC1)[C@@H]1NC2(CCCC2)[C@@]2(C(=O)Nc3cc(Cl)ccc32)[C@H]1c1cccc(Cl)c1F` yielded an IC50 of 0.65 µM.
Same read-out and setting: with `CCCC1(CCC)N[C@@H](C(=O)N[C@H]2CC[C@H](O)CC2)[C@H](c2cccc(Cl)c2F)[C@]12C(=O)Nc1cc(Cl)ccc12` the figure was 6.9 µM.
As to `O=C(N[C@H]1CC[C@H](O)CC1)[C@@H]1NC2(CCCCC2)[C@@]2(C(=O)Nc3cc(Cl)ccc32)[C@H]1c1cccc(Cl)c1F`, the TGI entry in data set [6] was “Active”. Also, the IC50 in [7] was above 10 µM; in data set [8] it was 0.32 µM; in data set [1], 0.19 µM.
Regarding `O=C(O)c1ccc(NC(=O)[C@@H]2NC3(CCCCC3)[C@@]3(C(=O)Nc4cc(Cl)ccc43)[C@H]2c2cccc(Cl)c2F)cc1`, the IC50 in data set [7] is above 10 µM; in data set [8] it was 0.25 µM; in data set [1], 0.1 µM.
`C[C@]1(O)C[C@@H](NC(=O)[C@@H]2NC3(CCC3)[C@@]3(C(=O)Nc4cc(Cl)ccc43)[C@H]2c2cccc(Cl)c2F)C1`: inhibition in data set [1] was half-maximal at 1.68 µM (IC50).
On the same count and under the same terms, as for `O=C(NCCN1CCOCC1)[C@@H]1NC2(CCC2)[C@]2(C(=O)Nc3cc(Cl)ccc32)[C@H]1c1cccc(Cl)c1F`, the figure is 1.65 µM.
Still for that read-out and setting: with `O=C(NCC[C@H](O)CO)[C@@H]1NC2(CCC2)[C@]2(C(=O)Nc3cc(Cl)ccc32)[C@H]1c1cccc(Cl)c1F` the figure was 1.67 µM; with `CCC1(CC)N[C@@H](C(=O)NCC[C@H](O)CO)[C@H](c2cccc(Cl)c2F)[C@]12C(=O)Nc1cc(Cl)ccc12`, above 10 µM; with `CCC1(CC)N[C@@H](C(=O)NCCN2CCOCC2)[C@H](c2cccc(Cl)c2F)[C@]12C(=O)Nc1cc(Cl)ccc12`, above 10 µM.
In data set [2], `C[C@]1(O)C[C@@H](NC(=O)[C@@H]2NC3(CCCCC3)[C@@]3(C(=O)Nc4cc(Cl)ccc43)[C@H]2c2cccc(Cl)c2F)C1` returned a fraction remaining at 0 h of 100%. The same molecule had a fraction remaining at 24 h in data set [3] of 100%. In [4], this molecule gave a fraction remaining at 72 h of 100%. Moreover, 0.16 µM corresponded to half-maximal inhibition in data set [1] (IC50). Also, the amount remaining at 144 h in data set [5] came out at 100%.
Consider `O=C(N[C@H]1CC[C@H](O)CC1)[C@@H]1NC2(CCC2)[C@]2(C(=O)Nc3cc(Cl)ccc32)[C@H]1c1cccc(Cl)c1F`, for which the IC50 in data set [1] stood at 2 µM.
As for `CC(C)(C)C[C@@H]1N[C@@H](C(=O)N[C@H]2C[C@@](C)(O)C2)[C@H](c2cccc(Cl)c2F)[C@]12C(=O)Nc1cc(Cl)ccc12`, in data set [2], the share remaining at 0 h was found to be 100%. The same molecule displayed a share remaining at 24 h in data set [3] of 99.6%. For the same molecule, the degraded at 168 h in data set [9] and in [10] was 2% each time. In data set [4], this molecule gave a share remaining at 72 h of 98.6%. For the same molecule, in [5], the share remaining at 144 h worked out at 97.7%.
Regarding `CC1(C)N[C@@H](C(=O)N[C@H]2CC[C@H](O)CC2)[C@H](c2cccc(Cl)c2F)[C@]12C(=O)Nc1cc(Cl)ccc12`, the IC50 in data set [1] was 2.9 µM. That is a single-digit micromolar value.
`O=C(NCCN1CCOCC1)[C@@H]1NC2(CCCCC2)[C@@]2(C(=O)Nc3cc(Cl)ccc32)[C@H]1c1cccc(Cl)c1F` gave a share remaining at 0 h in [2] of 100%. The molecule also came in with an amount remaining at 24 h in [3] of 100%. For the same molecule, in [4], the share remaining at 72 h is 99.6%. The molecule further gave an IC50 in data set [1] of 0.3 µM. In [5], this molecule gave an amount remaining at 144 h of 99.2%.
With `O=C(N[C@H]1CC[C@H](O)CC1)[C@@H]1NC2(CCC2)[C@@]2(C(=O)Nc3cc(Cl)ccc32)[C@H]1c1cccc(Cl)c1F`, in [1], the IC50 is 1.6 µM.
